We go through one compound from publication PMC12281424, “A Rac-specific competitive inhibitor of guanine nucleotide binding reduces metastasis in triple-negative breast cancer” (Cell Reports Medicine, 2025).

One experiment deals with T1, RAC1 G30S (Homo sapiens, UniProt P63000, G30S).
T1 construct: Full-length RAC1G30S was obtained by directed mutagenesis on the pET-3a-RAC1HisCter plasmid; 6xHis (C); made in house
The experiment in a line: GEF-stimulated nucleotide exchange. Type of experiment: biochemical. More on the design: dose or concentration left out as unconfirmed. An excerpt:
Figure 4 A41 selectively impairs RAC protein activation (A) Representative surface plasmon resonance (SPR) sensograms of binding of immobilized RHOA or CDC42 with indicated increasing concentrations of A41 (N > 3). (B) Effect of A41 on GEF-stimulated RAC2, RHOG, RHOA, and CDC42 nucleotide exchange. […] Kobs is expressed as mean ± SEM. ∗p < 0.001 vs. control. (C) Effect of A41 on RAC1 G30S activation. […] Data are expressed as mean ± SEM. (D) Immunoblot analysis and associated quantification of RAC-GTP level and total RAC expression in NIH-3T3 fibroblasts expressing RAC wild-type (RAC1 WT) or RAC1 oncomutants (RAC1 P29S and RAC1b) in the absence (Ctrl) and presence of A41 (10 μM). RAC activation was measured as the ratio of RAC-GTP to total RAC and expressed relative to Ctrl condition. Data are presented as mean ± SEM. ∗∗∗p < 0.001 vs. controls.
Full-length RAC1 carrying a 6xHis tag in C-terminus was purified as previously described.[64] […] Specific exchange activity toward RHOA determined by fluorescence kinetics is 0.04 s^−1M^−1.
Nucleotide exchange kinetics were measured by recording the increase in fluorescence following the association of mant-GTP on GDP-bound RHO protein or the decay in fluorescence following the dissociation of mant-GDP pre-loaded onto the RHO protein (λEx = 360 nm, λEm = 440 nm) as previously described.[39] […]

Experiment [1] has as its target Peptidase, Angiotensin Converting Enzyme (Oryctolagus cuniculus, UniProt P12822). Put plainly: Safety screen. Type of experiment: biochemical, rabbit.
Protocol: Blood cell counts, kinase profiler, safety screen, bacterial cytotoxicity, Ames, micronucleus assays were performed by the company Eurofins (France).
For another experiment, the target named is ACK1(h) (Homo sapiens, UniProt Q07912). Put plainly: Kinase Profiler. Type of experiment: biochemical.
The target of the next experiment is Aurora-B(h) (Homo sapiens, UniProt Q96GD4). The experiment in a line: Kinase Profiler. Type of experiment: biochemical.
The target of another experiment is CaMKIß(h) (Homo sapiens, UniProt Q6P2M8). The experiment in a line: Kinase Profiler. Format: biochemical.
In another experiment the target is CDKL3(h) (Homo sapiens, UniProt Q8IVW4). The experiment in a line: Kinase Profiler. Type of experiment: biochemical.
The next experiment has as its target DCAMKL1(h) (Homo sapiens, UniProt O15075). Put plainly: Kinase Profiler. Format: biochemical.
In the next experiment the target is Flt3(D835Y)(h) (Homo sapiens, UniProt P36888, D835Y). Put plainly: Kinase Profiler. Format: biochemical.
The target of the next experiment is IRR(h) (Homo sapiens, UniProt P14616). Put plainly: Kinase Profiler. Format: biochemical.
The target in the next experiment is Met(M1268T)(h) (Homo sapiens, UniProt P08581, M1250T). The experiment in a line: Kinase Profiler. Type of experiment: biochemical.
The next experiment addresses MST1(h) (Homo sapiens, UniProt Q13043). Put plainly: Kinase Profiler. Type of experiment: biochemical.
The target of another experiment is MYLK2(h) (Homo sapiens, UniProt Q9H1R3). Put plainly: Kinase Profiler. Format: biochemical.
A further experiment deals with NEK6(h) (Homo sapiens, UniProt Q9HC98). The experiment in a line: Kinase Profiler. Type of experiment: biochemical.
The target of a further experiment is Snk(h) (Homo sapiens, UniProt Q9NYY3). The experiment in a line: Kinase Profiler. Format: biochemical.
A further experiment concerns the target Tec(h) activated (Homo sapiens, UniProt P42680). Put plainly: Kinase Profiler. Type of experiment: biochemical.
For another experiment, the target named is PI3K (p110d/p85a)(h) (Homo sapiens, UniProt O00329). The experiment in a line: Kinase Profiler. Type of experiment: biochemical.
Sequence of PI3K (p110d/p85a)(h) (O00329 whole entry): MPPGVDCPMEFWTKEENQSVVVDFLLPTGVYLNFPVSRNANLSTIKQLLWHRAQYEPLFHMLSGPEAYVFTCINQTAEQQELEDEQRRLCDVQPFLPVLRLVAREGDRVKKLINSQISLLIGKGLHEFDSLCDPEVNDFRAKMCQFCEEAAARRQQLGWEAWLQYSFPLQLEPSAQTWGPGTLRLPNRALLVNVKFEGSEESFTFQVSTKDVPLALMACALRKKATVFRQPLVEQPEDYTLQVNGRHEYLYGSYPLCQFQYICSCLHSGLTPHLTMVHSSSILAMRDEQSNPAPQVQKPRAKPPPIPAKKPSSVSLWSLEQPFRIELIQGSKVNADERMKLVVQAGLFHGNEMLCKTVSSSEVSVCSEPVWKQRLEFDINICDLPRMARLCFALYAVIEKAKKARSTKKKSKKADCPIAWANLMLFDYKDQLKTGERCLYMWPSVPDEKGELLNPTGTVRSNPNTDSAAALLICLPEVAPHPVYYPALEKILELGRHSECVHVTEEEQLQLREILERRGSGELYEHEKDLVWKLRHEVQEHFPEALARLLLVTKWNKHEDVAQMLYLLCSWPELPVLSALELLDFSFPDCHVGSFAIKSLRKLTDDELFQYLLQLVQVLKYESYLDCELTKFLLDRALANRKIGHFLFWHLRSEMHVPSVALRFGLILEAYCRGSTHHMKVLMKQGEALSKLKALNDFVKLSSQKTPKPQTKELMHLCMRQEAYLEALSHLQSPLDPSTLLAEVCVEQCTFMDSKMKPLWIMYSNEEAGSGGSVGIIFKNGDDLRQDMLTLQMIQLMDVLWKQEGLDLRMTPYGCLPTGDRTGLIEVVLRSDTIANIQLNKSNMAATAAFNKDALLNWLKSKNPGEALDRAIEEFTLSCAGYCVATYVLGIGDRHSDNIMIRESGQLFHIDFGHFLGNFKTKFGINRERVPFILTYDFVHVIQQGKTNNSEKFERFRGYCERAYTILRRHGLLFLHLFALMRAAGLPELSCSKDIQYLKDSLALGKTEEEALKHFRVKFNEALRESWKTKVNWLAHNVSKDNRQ
Sequence of PI3K (p110d/p85a)(h) (P27986 whole entry partner): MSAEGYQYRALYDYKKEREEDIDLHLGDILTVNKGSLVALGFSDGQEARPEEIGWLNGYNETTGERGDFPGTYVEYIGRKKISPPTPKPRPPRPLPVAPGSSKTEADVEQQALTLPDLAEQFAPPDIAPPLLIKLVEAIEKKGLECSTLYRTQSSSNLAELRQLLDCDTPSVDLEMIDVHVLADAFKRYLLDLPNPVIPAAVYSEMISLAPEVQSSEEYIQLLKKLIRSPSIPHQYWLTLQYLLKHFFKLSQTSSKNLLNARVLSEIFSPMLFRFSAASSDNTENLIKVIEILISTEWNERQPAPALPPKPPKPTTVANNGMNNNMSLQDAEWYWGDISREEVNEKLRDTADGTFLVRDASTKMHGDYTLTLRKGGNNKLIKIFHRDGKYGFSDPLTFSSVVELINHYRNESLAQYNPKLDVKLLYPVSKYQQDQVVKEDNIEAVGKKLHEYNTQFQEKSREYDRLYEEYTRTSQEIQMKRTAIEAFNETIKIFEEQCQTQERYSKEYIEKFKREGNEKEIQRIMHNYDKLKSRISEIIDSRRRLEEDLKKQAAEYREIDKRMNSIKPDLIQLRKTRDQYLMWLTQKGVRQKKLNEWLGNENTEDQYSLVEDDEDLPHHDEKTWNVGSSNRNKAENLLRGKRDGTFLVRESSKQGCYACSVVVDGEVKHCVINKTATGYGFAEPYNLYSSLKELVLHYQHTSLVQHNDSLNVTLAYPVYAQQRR

Sequence of MST1(h) (Q13043 whole entry): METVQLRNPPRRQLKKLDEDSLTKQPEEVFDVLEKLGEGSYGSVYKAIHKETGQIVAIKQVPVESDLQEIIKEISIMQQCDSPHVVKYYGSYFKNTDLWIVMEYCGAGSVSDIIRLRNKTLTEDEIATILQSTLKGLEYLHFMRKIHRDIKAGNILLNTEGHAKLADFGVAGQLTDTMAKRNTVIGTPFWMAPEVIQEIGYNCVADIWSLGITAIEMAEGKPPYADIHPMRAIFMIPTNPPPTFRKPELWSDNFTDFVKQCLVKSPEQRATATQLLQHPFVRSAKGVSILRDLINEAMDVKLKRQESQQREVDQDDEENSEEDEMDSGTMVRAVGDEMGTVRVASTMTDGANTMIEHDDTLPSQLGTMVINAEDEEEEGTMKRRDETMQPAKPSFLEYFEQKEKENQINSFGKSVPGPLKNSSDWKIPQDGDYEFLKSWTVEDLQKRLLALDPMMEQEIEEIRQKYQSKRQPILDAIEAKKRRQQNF
Sequence of NEK6(h) (Q9HC98 whole entry): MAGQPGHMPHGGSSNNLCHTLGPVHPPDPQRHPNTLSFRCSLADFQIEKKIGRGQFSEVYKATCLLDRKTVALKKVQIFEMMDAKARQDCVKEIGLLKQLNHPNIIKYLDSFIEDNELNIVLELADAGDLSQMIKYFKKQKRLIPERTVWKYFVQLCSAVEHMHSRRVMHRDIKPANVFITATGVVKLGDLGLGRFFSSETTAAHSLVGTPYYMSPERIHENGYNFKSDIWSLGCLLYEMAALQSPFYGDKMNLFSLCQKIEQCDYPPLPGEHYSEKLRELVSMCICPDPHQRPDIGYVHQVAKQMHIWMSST
Sequence of ACK1(h) (Q07912 whole entry): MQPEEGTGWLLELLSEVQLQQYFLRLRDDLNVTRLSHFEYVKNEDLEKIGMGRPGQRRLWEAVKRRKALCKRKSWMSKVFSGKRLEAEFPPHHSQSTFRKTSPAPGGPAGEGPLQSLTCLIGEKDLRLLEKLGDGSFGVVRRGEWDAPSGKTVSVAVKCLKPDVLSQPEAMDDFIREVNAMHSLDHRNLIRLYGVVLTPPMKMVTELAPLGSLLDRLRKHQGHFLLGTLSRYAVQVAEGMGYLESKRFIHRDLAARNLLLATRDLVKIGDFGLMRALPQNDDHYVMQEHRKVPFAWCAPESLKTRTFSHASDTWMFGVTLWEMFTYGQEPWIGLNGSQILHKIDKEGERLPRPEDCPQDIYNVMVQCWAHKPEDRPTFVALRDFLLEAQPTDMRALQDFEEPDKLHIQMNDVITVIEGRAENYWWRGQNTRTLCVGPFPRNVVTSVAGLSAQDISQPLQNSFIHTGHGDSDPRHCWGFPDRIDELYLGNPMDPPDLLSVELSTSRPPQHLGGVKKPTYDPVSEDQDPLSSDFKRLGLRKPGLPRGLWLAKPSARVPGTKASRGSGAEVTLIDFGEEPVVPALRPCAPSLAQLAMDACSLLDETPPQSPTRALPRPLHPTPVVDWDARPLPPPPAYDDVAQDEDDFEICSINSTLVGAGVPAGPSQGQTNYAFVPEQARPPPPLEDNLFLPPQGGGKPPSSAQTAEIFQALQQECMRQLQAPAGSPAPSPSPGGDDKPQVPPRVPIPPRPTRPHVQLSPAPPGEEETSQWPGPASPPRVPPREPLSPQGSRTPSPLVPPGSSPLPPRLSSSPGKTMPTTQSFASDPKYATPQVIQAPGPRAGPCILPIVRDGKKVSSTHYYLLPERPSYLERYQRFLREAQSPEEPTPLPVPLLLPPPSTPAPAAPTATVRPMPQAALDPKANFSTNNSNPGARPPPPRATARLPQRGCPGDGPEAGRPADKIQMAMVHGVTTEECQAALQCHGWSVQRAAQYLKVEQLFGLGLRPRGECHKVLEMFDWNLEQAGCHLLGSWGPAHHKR
Sequence of IRR(h) (P14616 27-1297): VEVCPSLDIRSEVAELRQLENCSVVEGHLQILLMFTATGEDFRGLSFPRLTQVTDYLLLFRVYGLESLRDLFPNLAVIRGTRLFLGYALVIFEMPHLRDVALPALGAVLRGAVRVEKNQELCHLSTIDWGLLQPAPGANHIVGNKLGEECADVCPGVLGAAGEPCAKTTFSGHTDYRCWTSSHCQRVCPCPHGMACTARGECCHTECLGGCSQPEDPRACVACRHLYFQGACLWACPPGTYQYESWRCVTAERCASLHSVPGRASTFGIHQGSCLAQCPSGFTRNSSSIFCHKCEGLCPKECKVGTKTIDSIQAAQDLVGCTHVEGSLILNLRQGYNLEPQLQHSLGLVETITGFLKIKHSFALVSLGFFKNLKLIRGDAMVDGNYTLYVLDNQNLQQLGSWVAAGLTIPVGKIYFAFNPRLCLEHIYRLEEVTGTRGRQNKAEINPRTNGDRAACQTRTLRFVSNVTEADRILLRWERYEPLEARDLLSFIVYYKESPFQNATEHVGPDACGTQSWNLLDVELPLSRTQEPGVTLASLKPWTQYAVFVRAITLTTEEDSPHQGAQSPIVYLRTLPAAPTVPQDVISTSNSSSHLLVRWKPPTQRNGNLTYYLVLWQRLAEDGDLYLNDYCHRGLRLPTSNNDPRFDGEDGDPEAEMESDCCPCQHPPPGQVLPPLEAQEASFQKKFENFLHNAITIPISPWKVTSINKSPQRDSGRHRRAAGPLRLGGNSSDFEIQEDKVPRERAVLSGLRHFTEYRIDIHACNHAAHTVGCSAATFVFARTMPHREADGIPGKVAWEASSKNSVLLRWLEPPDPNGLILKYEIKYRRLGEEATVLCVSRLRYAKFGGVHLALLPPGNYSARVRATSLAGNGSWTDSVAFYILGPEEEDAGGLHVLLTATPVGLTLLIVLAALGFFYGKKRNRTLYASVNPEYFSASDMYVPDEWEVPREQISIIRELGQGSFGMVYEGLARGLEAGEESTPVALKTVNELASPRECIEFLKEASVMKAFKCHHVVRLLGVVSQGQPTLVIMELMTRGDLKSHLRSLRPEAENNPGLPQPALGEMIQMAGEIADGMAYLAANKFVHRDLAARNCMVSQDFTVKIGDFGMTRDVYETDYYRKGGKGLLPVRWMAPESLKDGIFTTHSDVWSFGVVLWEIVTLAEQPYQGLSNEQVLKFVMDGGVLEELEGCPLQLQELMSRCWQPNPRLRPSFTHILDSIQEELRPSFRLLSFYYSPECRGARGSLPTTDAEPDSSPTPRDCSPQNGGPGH
Protocol for ACK1(h): (§1) The kinase profiler was performed by the company Eurofins (Discovery, Panlab and Cerep).
Protocol for Aurora-B(h): (§2) Blood cell counts, kinase profiler, safety screen, bacterial cytotoxicity, Ames, micronucleus assays were performed by the company Eurofins (France). The kinase profiler was performed by the company Eurofins (Discovery, Panlab and Cerep).
Protocol for CDKL3(h): as §1
Protocol for CaMKIß(h): as §2
Protocol for DCAMKL1(h): as §2
Protocol for Flt3(D835Y)(h): as §1
Protocol for IRR(h): as §2
Protocol for MST1(h): as §2
Protocol for MYLK2(h): as §1
Protocol for Met(M1268T)(h): as §1
Protocol for NEK6(h): as §1
Protocol for PI3K (p110d/p85a)(h): as §2
Protocol for Snk(h): as §1
Protocol for Tec(h) activated: as §2

As to `COc1ccc(OC)c(NS(=O)(=O)c2ccc(NC(=O)CCSc3ccc(C)cc3)cc2)c1` [Compound A41], at RAC1 G30S, the “TRIO-induced nucleotide exchange on RAC1 G30S” value is reported as “not able to inhibit”. Besides, the “% inh.” value in experiment [1] worked out at 11%. Moreover, the “Activity(%)” value is given as 103% at ACK1(h); 86% at Aurora-B(h); 114% on CaMKIß(h); 103% on CDKL3(h); 99% at DCAMKL1(h); 101% at Flt3(D835Y)(h). Also, the “Activity(%)” value was 118% at IRR(h); 108% on Met(M1268T)(h); 96% at MST1(h); 103% on MYLK2(h); 109% on NEK6(h); 112% on Snk(h). Besides, the “Activity(%)” value on Tec(h) activated was 112%; on PI3K (p110d/p85a)(h) it was 100%.
